# Active and inactive are the calls of the source.
# Assays:
# [1] = A549 cell cytotoxicity, dose response, cytotoxicity control, cherry-picks, 26 µM top dose (AID 1053119); assay type: functional, cell-based
# [2] = biological target: E3 ubiquitin-protein ligase UHRF1 (Homo sapiens, UniProt Q96T88); assay: Counterscreen for inhibitors of 5-meCpG-binding domain protein 2 (MBD2): TRFRET-based biochemical high throughput dose response assay to identify inhibitors of binding of ubiquitin-like with PHD and ring finger domains 1 (UHRF1) to methylated oligonucleotide.
# E3 ubiquitin-protein ligase UHRF1, sequence (Q96T88 whole entry, the tested form may be a part): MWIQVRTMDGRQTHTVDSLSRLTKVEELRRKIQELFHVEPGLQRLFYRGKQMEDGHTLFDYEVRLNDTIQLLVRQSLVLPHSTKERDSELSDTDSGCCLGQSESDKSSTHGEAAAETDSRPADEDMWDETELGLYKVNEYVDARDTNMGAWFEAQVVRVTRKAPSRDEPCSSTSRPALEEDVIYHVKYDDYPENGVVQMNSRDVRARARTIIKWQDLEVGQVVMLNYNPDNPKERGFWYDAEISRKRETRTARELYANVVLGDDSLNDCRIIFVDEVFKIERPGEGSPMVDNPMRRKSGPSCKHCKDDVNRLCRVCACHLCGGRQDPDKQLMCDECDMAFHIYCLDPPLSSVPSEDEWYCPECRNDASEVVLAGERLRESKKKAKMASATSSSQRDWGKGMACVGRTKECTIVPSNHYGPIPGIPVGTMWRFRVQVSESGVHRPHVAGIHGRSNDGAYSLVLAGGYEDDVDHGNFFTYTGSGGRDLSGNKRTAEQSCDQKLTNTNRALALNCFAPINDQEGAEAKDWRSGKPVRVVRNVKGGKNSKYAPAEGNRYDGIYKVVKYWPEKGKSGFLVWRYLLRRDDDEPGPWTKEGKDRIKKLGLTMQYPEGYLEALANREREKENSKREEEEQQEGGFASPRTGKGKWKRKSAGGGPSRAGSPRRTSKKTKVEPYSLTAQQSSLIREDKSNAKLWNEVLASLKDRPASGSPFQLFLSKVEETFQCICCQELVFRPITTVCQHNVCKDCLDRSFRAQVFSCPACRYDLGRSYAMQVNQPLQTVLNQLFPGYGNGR
# [3] = biological target: T1, Trace amine-associated receptor 1 (Homo sapiens, UniProt Q96RJ0); assay: Fluorescence-based cell-based high throughput dose response assay to identify agonists of the human trace amine associated receptor 1 (TAAR1).; assay type: functional
# T1 sequence (Q96RJ0 whole entry): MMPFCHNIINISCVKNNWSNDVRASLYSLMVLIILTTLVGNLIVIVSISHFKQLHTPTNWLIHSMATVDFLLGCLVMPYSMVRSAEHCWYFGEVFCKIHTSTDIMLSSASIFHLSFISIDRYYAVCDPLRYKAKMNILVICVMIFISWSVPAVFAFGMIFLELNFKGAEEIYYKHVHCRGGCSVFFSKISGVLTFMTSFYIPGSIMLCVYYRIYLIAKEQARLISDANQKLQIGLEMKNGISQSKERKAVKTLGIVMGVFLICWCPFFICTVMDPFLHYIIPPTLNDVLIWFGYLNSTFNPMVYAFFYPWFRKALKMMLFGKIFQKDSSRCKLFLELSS
# [4] = cells; assay type: functional, cell-based
# [5] = cells; assay type: functional, cell-based; remark: listed apart in the source
# [6] = biological target: T1, Trace amine-associated receptor 1; assay: Counterscreen for agonists of the human trace amine associated receptor 1 (hTAAR1): Fluorescence-based cell-based high throughput dose response assay to identify hTAAR1 agonist that also desensitize TAAR1 receptor response.; assay type: functional
# [7] = test system: SN12K1; assay: cells; assay type: functional; conditions: Homo sapiens
# [8] = cells; assay type: functional
# [9] = cytotoxicity in HEK-293T NF-kB-Luc cells, dose response, cytotoxicity control for B/T-cell NF-kB inhibitor project, cell-based, uHTS hits (AID 489019); assay type: functional;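 also: IC50 reflects cytotoxicity as loss of cell viability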
# [10] = test system: P388/ADR; assay: cells; assay type: functional; conditions: Mus musculus
# [11] = inhibitors of PGC1a acetylation in cells, dose response, cell-based, cherry-picked samples (AID 720514); assay type: functional;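 also: potency may reflect raised or lowered acetylation signal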
# [12] = THP-1 cell cytotoxicity, dose response, cytotoxicity control for non-replicating M. tuberculosis project (AID 489025); assay type: functional
# [13] = microbe, parasite or virus in culture; assay type: functional; conditions: Mycobacterium tuberculosis
# [14] = biological target: T2, Eukaryotic translation initiation factor 2-alpha kinase 3 (Homo sapiens, UniProt Q9NZJ5); assay: Counterscreen assay for PERK inhibitors: Dose response cell-based high throughput screening assay to measure inhibition of PERK at 6 hours. [Related pubchem assays: 1522, 1416 ]; assay type: functional
# T2 sequence (Q9NZJ5 whole entry): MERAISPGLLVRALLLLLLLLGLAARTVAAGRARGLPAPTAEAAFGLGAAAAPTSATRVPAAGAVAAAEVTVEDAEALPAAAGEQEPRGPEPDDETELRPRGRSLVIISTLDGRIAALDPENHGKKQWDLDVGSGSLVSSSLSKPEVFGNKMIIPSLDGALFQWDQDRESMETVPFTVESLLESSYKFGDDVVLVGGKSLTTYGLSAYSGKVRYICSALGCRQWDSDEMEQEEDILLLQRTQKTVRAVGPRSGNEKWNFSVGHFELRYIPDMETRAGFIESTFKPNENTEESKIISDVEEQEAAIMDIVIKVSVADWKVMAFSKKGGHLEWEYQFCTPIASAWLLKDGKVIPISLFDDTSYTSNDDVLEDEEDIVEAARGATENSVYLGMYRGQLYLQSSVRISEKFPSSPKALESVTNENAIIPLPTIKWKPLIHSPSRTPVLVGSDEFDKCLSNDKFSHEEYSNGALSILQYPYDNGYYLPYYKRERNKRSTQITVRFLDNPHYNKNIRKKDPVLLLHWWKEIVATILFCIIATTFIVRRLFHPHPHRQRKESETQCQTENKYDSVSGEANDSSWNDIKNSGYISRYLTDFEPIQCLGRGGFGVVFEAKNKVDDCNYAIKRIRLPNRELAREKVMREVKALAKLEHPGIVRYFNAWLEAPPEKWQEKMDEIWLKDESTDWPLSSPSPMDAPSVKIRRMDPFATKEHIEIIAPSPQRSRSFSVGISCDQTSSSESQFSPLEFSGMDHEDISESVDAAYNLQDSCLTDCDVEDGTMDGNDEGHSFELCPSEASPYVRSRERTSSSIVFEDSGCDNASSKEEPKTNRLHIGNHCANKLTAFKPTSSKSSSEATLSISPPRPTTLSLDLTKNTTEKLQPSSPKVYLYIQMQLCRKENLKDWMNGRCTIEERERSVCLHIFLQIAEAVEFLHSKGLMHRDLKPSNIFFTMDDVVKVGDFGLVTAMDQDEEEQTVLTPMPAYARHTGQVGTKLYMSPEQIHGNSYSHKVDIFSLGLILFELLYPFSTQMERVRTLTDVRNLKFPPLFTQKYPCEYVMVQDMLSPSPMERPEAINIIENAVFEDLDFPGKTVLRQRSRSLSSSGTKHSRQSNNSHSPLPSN
# [15] = biological target: T2, Eukaryotic translation initiation factor 2-alpha kinase 3; assay: Dose response cell-based high-throughput screening assay to measure PERK inhibition. [Related pubchem assays: 1416 ]; assay type: functional
# [16] = Vero E6 cell cytotoxicity, dose response, cytotoxicity control for non-replicating M. tuberculosis project, secondary assay (AID 492998); assay type: functional, VeroE6; conditions: Vero C1008
# [17] = test system: Jurkat; assay: antigen receptor-induced NF-kB inhibitors, dose response, Jurkat, luciferase reporter, luminescence, B- and T-cell (AID 489004); assay type: functional, cell-based; conditions: Homo sapiens;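 also: NF-kB luciferase reporter Jurkat cells stimulated with PMA plus ionomycin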
# [18] = HepG2 cell cytotoxicity, dose response, cytotoxicity control for non-replicating M. tuberculosis project (AID 489018); assay type: functional; conditions: Mycobacterium tuberculosis
# [19] = test system: P388; assay: cells; assay type: functional; conditions: Mus musculus
# [20] = biological target: Albumin (Bos taurus, UniProt P02769); assay: Counterscreen for inhibitors of T-cell receptor (TCR)-CD3 interaction: Fluorescence-based biochemical high throughput dose response assay to identify inhibitors of T-cell receptor (TCR)-CD3 interaction using a TAMRA-labeled BSA probe.; assay type: functional
# [21] = ADAM10 inhibitors, peptide cleavage, dose response, biochemical, QFRET (AID 743254);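 also: ADAM10 enzyme with the DM2 quenched FRET peptide as substrate; EDANS fluorescence gain as the protease cuts the substrate; inhibitor potency against ADAM10 proteolytic activity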
# [22] = biological target: Disintegrin and metalloproteinase domain-containing protein 17 (Homo sapiens, UniProt P78536); assay: ADAM17 protease inhibitors, dose response, counter-screen for ADAM10 exosite inhibitor project, biochemical, quenched FRET substrate (AID 743253)
# Disintegrin and metalloproteinase domain-containing protein 17, sequence (P78536 whole entry, the tested form may be a part): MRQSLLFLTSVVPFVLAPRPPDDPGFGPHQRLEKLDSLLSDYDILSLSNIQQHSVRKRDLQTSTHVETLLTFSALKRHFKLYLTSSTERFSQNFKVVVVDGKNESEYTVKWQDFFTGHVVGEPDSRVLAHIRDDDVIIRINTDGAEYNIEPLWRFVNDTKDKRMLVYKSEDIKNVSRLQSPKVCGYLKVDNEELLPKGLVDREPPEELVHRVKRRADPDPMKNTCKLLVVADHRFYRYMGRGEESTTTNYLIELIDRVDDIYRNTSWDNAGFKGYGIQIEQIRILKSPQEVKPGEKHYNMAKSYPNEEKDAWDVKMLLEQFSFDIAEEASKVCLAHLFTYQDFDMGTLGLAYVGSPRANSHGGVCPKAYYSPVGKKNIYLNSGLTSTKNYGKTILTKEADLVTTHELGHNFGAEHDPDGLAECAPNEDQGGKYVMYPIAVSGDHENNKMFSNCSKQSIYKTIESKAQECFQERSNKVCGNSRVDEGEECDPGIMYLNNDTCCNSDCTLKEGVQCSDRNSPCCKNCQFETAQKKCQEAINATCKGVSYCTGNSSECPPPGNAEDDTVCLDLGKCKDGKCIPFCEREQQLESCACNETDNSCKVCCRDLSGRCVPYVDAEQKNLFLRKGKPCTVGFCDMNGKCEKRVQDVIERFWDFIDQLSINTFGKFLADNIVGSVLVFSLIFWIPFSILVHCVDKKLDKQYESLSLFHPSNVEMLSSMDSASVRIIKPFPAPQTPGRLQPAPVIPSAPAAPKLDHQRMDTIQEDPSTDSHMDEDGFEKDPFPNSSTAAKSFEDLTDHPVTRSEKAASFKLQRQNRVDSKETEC
# [23] = cells; conditions: HEK293
# [24] = HepG2 cell cytotoxicity, dose response, cytotoxicity control, ATP luminescence, cherry-pick, set 6 (AID 1053125); assay type: functional, cell-based
# [25] = test system: Vero; assay: Vero cell toxicity, dose response, cytotoxicity control, plate reader, cherry-pick samples (AID 687020); assay type: functional, cell-based; conditions: Chlorocebus sabaeus
# [26] = test system: BHK-21; assay: BHK-21 cell toxicity, dose response, cytotoxicity control, plate reader, cherry-pick samples (AID 687030); assay type: functional, cell-based; conditions: Mesocricetus auratus
# [27] = test system: A549; assay: A549 cell toxicity, dose response, cytotoxicity control, plate reader, cherry-pick samples (AID 687028); assay type: functional, cell-based; conditions: Homo sapiens
# [28] = biological target: Paired box protein Pax-8 (Homo sapiens, UniProt Q06710); assay: inhibitors of PAX8-driven TPO luciferase reporter, dose response, RMG-I cells, cherry-pick (AID 687027); assay type: functional, cell-based;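 also: luciferase reporter driven by Pax8 target thyroperoxidase promoter measured by SteadyGlo luminescence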
# Paired box protein Pax-8, sequence (Q06710 whole entry): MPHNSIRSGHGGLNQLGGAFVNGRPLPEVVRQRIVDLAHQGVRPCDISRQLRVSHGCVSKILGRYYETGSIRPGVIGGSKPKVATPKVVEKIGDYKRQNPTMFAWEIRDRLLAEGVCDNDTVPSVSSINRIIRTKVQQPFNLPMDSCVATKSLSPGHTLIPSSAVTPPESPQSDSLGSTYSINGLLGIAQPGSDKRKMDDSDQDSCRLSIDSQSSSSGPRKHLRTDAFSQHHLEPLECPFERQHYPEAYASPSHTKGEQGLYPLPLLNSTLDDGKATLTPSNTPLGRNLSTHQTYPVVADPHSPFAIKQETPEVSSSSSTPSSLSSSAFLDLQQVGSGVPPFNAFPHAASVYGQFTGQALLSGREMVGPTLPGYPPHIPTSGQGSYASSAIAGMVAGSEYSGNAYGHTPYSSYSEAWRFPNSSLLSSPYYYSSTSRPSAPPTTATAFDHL
# [29] = A2780 ovarian cancer cell cytotoxicity, dose response, cytotoxicity control, plate reader, dry powder samples (AID 743046); assay type: functional, cell-based
# [30] = inhibitors of TNFa-stimulated NF-kB luciferase reporter, dose response, selectivity assay for EBV LMP1 NF-kB inhibitor project, HEK293 LMP1 reporter cells, dry powder, set 2 (AID 624369); assay type: functional
# [31] = lymphoblastoid cell cytotoxicity, dose response, cytotoxicity control, plate reader, dry powder, set 2 (AID 624367); assay type: functional
# [32] = biological target: Metabotropic glutamate receptor 3 (Rattus norvegicus, UniProt P31422); assay: mGlu3 negative allosteric modulator potency, dose response, HEK/GIRK cells, thallium flux, rat (AID 651839); assay type: functional
# Metabotropic glutamate receptor 3, sequence (P31422 whole entry): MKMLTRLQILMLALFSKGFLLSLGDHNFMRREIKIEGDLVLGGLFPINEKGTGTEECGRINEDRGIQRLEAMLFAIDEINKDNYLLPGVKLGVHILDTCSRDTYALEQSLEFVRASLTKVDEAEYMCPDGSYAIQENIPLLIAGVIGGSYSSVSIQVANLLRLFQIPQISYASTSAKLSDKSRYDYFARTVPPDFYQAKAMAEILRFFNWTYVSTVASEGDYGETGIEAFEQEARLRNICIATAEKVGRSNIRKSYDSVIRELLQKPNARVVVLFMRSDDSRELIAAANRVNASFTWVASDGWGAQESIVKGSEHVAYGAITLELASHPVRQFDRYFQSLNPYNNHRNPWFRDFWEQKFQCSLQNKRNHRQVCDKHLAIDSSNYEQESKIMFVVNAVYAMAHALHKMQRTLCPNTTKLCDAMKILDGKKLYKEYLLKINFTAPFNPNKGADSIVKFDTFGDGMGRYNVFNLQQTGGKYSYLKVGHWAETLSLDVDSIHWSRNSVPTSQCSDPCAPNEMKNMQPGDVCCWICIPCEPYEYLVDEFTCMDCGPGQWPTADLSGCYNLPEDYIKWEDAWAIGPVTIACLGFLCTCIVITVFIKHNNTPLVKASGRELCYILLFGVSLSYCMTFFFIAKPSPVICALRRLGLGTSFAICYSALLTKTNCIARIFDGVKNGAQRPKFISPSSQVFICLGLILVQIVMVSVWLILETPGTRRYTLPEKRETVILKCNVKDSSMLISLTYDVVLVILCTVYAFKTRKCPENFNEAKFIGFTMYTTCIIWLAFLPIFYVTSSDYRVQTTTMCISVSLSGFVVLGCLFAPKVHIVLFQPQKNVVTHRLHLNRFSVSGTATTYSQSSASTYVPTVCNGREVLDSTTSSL
# [33] = inhibitors of non-replicating M. tuberculosis, dose response, luciferase, dry powder (AID 651620); assay type: functional; conditions: Mycobacterium tuberculosis
# [34] = inhibitors of non-replicating M. tuberculosis, dose response, luciferase, dry powder (AID 651619); assay type: functional; conditions: Mycobacterium tuberculosis
# [35] = growth inhibition of replicating M. tuberculosis, dose response, counter-screen, dry powder, IC90 (AID 651617); assay type: functional; conditions: Mycobacterium tuberculosis
# [36] = HeLa cell cytotoxicity, dose response, cytotoxicity control, 24 h, plate reader, powder samples, set 3 (AID 651864); assay type: functional, cell-based
# [37] = A375 melanoma cell viability loss, dose response, counter-screen for MITF inhibitor project, CellTiter-Glo luminescence, dry powder, set 4 (AID 624364); assay type: functional, cell-based; conditions: A-375;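 also: A375 melanoma cells are MITF independent so this is a counter screen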
# [38] = A375 melanoma cell cytotoxicity, dose response, counter-screen for MITF inhibitor project, CellTiter-Glo luminescence, dry powder, set 2 (AID 624489); assay type: functional, cell-based; conditions: A-375;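 also: actives are compounds lowering A375 viability meaning general cytotoxicity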
# [39] = biological target: Protein disulfide-isomerase (Homo sapiens, UniProt P07237); assay: PDI inhibitors, insulin turbidity readout, confirmation, biochemical, dry powder samples, set 2 (AID 652146)
# Protein disulfide-isomerase, sequence (P07237 whole entry): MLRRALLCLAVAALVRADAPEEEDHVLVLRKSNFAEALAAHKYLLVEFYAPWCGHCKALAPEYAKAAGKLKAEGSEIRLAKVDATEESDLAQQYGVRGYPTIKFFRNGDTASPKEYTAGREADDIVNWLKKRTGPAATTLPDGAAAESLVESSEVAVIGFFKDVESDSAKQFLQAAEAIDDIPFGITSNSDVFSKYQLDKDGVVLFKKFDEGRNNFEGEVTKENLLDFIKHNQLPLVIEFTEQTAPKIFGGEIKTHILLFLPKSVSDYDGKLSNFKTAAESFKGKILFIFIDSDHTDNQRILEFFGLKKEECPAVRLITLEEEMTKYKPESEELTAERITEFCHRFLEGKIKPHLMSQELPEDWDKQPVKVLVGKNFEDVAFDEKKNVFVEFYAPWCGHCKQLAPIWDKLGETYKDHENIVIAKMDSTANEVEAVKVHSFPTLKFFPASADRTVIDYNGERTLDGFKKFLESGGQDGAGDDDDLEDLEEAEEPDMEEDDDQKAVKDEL
# [40] = HeLa cell cytotoxicity, dose response, cytotoxicity control, ATP luminescence, dry powder (AID 652117); assay type: functional, cell-based
# [41] = biological target: Protein disulfide-isomerase A6 (Homo sapiens, UniProt Q15084); assay: Secondary Assay for Selectivity of PDI Inhibitors (against ERp5) Measured in Biochemical System Using Plate Reader - 2137-04_Inhibitor_Dose_DryPowder_Activity_Set3.
# Protein disulfide-isomerase A6, sequence (Q15084 whole entry): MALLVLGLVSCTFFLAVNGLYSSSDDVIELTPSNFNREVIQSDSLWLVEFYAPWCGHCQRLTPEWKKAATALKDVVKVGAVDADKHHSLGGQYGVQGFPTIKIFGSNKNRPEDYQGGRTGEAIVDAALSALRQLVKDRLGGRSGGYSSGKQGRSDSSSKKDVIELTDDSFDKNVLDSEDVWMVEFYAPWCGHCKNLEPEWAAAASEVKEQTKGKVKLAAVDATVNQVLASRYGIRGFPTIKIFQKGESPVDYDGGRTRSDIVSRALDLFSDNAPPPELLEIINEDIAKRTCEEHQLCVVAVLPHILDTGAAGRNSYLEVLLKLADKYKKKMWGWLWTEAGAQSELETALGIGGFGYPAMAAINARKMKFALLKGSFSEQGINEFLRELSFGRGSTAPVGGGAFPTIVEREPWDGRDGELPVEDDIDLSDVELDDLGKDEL
# [42] = HEK293T cell cytotoxicity, dose response, cytotoxicity control, luminescence plate reader, powder samples, set 4 (AID 651863); assay type: functional, cell-based; conditions: HEK293
# [43] = biological target: Delta-type opioid receptor (Homo sapiens, UniProt P41143); assay: Late-stage results from the probe development effort to identify antagonists of OPRK1: fluorescence-based cell-based dose response OPRD1 counterscreen.; assay type: functional
# Delta-type opioid receptor, sequence (P41143 whole entry): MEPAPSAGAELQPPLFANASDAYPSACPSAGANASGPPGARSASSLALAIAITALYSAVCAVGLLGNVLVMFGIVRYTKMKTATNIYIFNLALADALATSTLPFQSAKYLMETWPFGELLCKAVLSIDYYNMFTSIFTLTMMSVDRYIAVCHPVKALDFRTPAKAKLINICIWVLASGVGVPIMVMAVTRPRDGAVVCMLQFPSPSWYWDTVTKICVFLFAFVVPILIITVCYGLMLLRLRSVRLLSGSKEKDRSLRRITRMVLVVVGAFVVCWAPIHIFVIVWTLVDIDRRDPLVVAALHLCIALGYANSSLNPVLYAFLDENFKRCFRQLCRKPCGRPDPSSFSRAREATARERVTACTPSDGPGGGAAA
# [44] = biological target: Mu-type opioid receptor (Homo sapiens, UniProt P35372); assay: Late-stage results from the probe development effort to identify antagonists of OPRK1: luminescence-based cell-based dose response OPRM1 counterscreen.; assay type: functional
# Mu-type opioid receptor, sequence (P35372 whole entry): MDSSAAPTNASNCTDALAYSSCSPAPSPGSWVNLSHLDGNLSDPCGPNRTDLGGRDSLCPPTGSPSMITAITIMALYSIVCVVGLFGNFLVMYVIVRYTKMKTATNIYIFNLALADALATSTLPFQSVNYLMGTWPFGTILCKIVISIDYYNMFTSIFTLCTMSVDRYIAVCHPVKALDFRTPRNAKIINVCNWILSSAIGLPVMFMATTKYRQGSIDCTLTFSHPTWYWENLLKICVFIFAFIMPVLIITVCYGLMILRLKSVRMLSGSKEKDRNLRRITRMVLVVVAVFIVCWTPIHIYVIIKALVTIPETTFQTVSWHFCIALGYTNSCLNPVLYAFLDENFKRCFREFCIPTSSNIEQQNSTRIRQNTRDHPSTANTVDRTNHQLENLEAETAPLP
structure (smiles),measurement,setting,value
O=C(CN1CCCC1)Nc1ccc(Oc2ccc(NC(=O)CN3CCCC3)cc2)cc1,AC50,[1],> 52 µM (inactive)
NC1=C(c2nc3ccccc3s2)C(=O)CN1NC(=O)c1c[nH]c2ccccc12,IC50,[2],> 43.8 µM (inactive)
O=C(CSC1=Nc2ccc(F)cc2S(=O)(=O)N1)NCCc1ccccc1,EC50,[3],0.621 µM (active)
same,EC50,[4],> 29.9 µM (inactive)
same,IC50,[5],> 29.9 µM (inactive)
same,IC50,[6],3.52 µM (active)
COc1cccc2c1C(CO)N1C(C#N)C3CC(C(=O)O)C(C1C2)N3C (centres undefined),GI50,[7],0.243 µM (active)
same,IC50,[8],2.76 µM (active)
same,IC50,[9],> 80 µM (inactive)
same,GI50,[10],< 0.0384 µM (active)
same,AC50,[11],20.1 µM (active)
same,CC50,[12],0.153 µM (active)
same,CC50,[13],0.194 µM (active)
same,EC50,[14],> 55.7 µM (not active)
same,EC50,[15],> 55.7 µM (not active)
same,CC50,[16],0.33 µM (active)
same,IC50,[17],0.34 µM (active)
same,CC50,[18],0.925 µM (active)
same,GI50,[19],0.416 µM (active)
CN=C(S)NNC(=O)c1cccn(Cc2cccc(C(F)(F)F)c2)c1=O,IC50,[20],> 94.1 µM (inactive)
O=C1NCN(c2ccccc2)C12CCN(C(c1cccc3ccccc13)c1nnnn1Cc1ccccc1)CC2 (centres undefined),IC50,[21],> 69.5 µM (inactive)
same,IC50,[22],> 69.5 µM (inactive)
CC/C(C)=N\Nc1nc(-c2cc3cc(OC)ccc3oc2=O)cs1,AC50,[23],> 52 µM (inactive)
same,AC50,[24],> 52 µM (inactive)
CCCCN(C(C)=O)c1ccc2c(c1)C1CC2CCN1Cc1ccccc1 (centres undefined),AC50,[25],30.5 µM (active)
same,AC50,[26],33.7 µM (active)
same,AC50,[27],30.3 µM (active)
O=C(Nc1ccc(C(F)(F)F)cc1)Nc1ccc2c(c1)[C@H]1C[C@H](CC(=O)N3CCc4ccccc4C3)O[C@H](CO)[C@H]1O2,AC50,[28],7.26 µM (active)
same,AC50,[29],57.4 µM (active)
same,AbsAC35,[30],66.25 µM
same,AbsAC35,[31],42.44 µM
COc1ccc(C#Cc2ccc(C(=O)N3CC[C@@H](O)C3)cc2)cc1,IC50,[32],6.34 µM (active)
c1ccc(-c2nnc(SCc3ccccn3)o2)cc1,IC90,[33],4 µM (active)
same,IC90,[34],4 µM (active)
same,IC90,[35],16 µM (active)
O=C(Cc1ccc(-c2ccccc2)cc1)NC1CCCCC1,AC50,[36],109 µM (active)
O=C1C(NS(=O)(=O)c2ccc(Br)cc2)=C(c2ccc(OC(F)(F)F)cc2)C(=O)c2ccccc21,AC50,[37],> 70 µM (inactive)
same,AC50,[38],> 70 µM (inactive)
CC(C)(C)OC(=O)C1(CCOc2ccccc2)CCN(Cc2ccc(O)c(Cl)c2)CC1,AC50,[39],0.6 µM (active)
same,AC50,[40],34 µM (active)
same,AC50,[41],30 µM (inactive)
O=C(O)C1CCCCC1C(=O)N1CCc2ccccc2C1CN1C(=O)[C@H]2CCCC[C@H]2C1=O (some centres undefined),AC50,[42],> 52 µM (inactive)
COC(=O)c1cc(Cl)cnc1N1CCC(NC2CCCCC2)CC1,IC50,[43],39 µM (inactive)
same,IC50,[44],2 µM (active)

# Source: ChEMBL document CHEMBL1201862, “PubChem BioAssay data set” (2004)
